Data: patent US3985878A, “Anti-inflammatory and antirheumatic compounds and preparation” (priority 1974, dated 1976)
Where “and” joins values, the source holds several entries; their conditions need not be identical. Equal entries are not always repeated. Structures can show the parent of a compound that is named as a salt. Where two headings read alike, the source gives them in different places.

How the values were obtained:
[1] = Osteolathyrism in the rabbit (aminoacetonitrile); assay type: in vivo; settings: for Deformed gait of back legs / Deformed gait of front legs / General Condition of Animal / Loss of fur / Loss of weight / Ptosis of auricular pavilion: score 0 (no damage) to 4 (maximum damage), 25 days
Experimental: B. Tests in vivo: Osteolathyrism in the rabbit.
Osteolathrism consists of inducing into young rabbits a dystrophy of the bone joint system, administering every day aminoacetonitrile by i.p. means, in the quantity of 100 mg/kg of body weight. With this treatment, in about 30 days, the following changes are shown in the rabbit:
Loss of weight (related to the checks physiologically treated), ptosis of the auricular pavilion, loss of fur, deformation of the front and rear limbs, deterioration of the general condition.
All this takes place because the aminoacetonitrile is a collagen tissue poison which changes the biochemical composition of the joint cartilages and the bones.
An evaluation of the therapeutic activity can be made either by biochemical evaluation, i.e. by measuring the quantity of aminosugars in these tissues, or by considering only the general symptoms, which are proportional to the diminution of the aminosugars.
In Table 5 this latter evaluation is reported, in which every symptom was evaluated by allotting it a number from 0 to 4, 4 indicating the maximum amount of damage and 0 indicating no damage.
On Table 5 there are given the results of treatment evaluated on the 25th day, comparing the groups treated only with a physiological solution, only with aminoacetonitrile, with aminoacetonitrile and CR 604, with aminoacetonitrile and Indometacin in the prescribed doses.
Each group consisted of 8 animals.

[2] = Anti-inflammatory activity, paw test (Domenjoz test); assay type: in vivo, rat; settings: read-out: ED50 per os, acute anti-inflammatory activity (Domenjoz test)
Experimental: 1a. Anti-inflammatory activity: this activity was measured by the paw test according to Doemnjoz, characterised in its carrying out by the following method:
To young rats of medium weight of 200 g there is administered by hypodermic injection into the right paw an aqueous suspension of carragheen at 1%, 1 hour after the oral administration of the drugs under investigation.
After two hours from the administration of the carragheen, the pawas are disjointed, weighed, and comparison is made between the injected paw, meanwhile swollen, and the paw not interfered with.
This evaluation is expressed both in mg/kg of animal weight and in micromoles/Kg of weight of the animal.

[3] = system: urinary calcium; assay type: in vivo, human
Experimental: (§1) Thus for example comparing CR 604 administered in capsules of 75 mg (6 per day), with Indometacin in capsules of 25 mg (6 per day), i.e. in approximately equimolecular doses on a group of 60 subjects treated (30 with CR 604 and 30 with Indometacin, one notes that (see Table 7):
c. […] Excretion of calcium is related to the destruction of the fibrils of the proteic bone matrix which thus also loses the calcium deposited upon it.
The administration of known anti-inflammatories brings about the lysis of these fibrils with loss of calcium.

[4] = Analgesic activity, phenylquinone test; assay type: in vivo, rat; settings: read-out: ED50 per os, analgesic activity (phenylquinone test)
Description: 2. Analgesic activity: The analgesic activity of an anti-inflammatory can be examined traditionally by the phenylquinone method based on the fact that intra-peritoneal administration to a rat of an irritant substance such as phenylquinone induces vocal reactions ("squirring") in the animal.
From the number of these reactions one judges the pain sensitivity.

[5] = Pellets-induced granuloma test (cotton pellets); assay type: in vivo, rat; settings: read-out: ED50 per os, acute anti-inflammatory activity (granuloma test)
Experimental: 1b. Pellets-induced granuloma test:
Another important test for the evaluation of an anti-inflammatory is that of cotton pellets. This consists of planting a sterile cotton pellet under the rat's back skin.
This pellet is left in situ for a week while the animals are treated daily with various doses of the drug being examined. Evaluation is effected by weighing the pellets taken at the given time and dried, comparing the weight of those of the treated animals with the checks.

[6] = Solubility; assay type: physicochemical
[7] = assay type: in vivo, human; settings: for gastric disturbances (subjects treated): Indometacin capsules of 25 mg
Experimental: Thus for example comparing CR 604 administered in capsules of 75 mg (6 per day), with Indometacin in capsules of 25 mg (6 per day), i.e. in approximately equimolecular doses on a group of 60 subjects treated (30 with CR 604 and 30 with Indometacin, one notes that (see Table 7): […]

[8] = system: fibroblast culture; experiment: Production of mucopolysaccharides from fibroblast culture in vitro; assay type: cell-based; settings: Fibroblast, 240 h, read-out: Mucopolysaccharide products at the tenth day of incubation; for activity at 10 µg/mL: 10 μg/ml of culture liquid
Experimental: a. Tests in vitro: These tests consist of the cultivation in vitro, i.e., outside the organism, of tissue of the same embriological origin in relation to the osteoarticular. Upon the growth of this tissue there is then measured the activities of the various drugs. The units of measurement of these activities is the production of glucosaminoglicanes (mucopolysaccharides measured by the turbidimetric method).
The compounds which form the subject of this invention were evaluated according to this test and compared with known anti-inflammatories.

[9] = Irritant and ulceroid (gastrolesive) activity on the gastric mucosa; settings: in vivo, rat
Experimental: 4. Irritant and ulceroid activity on the gastric mucosa
The experimental evaluation of this activity was made on rats, by the method here reported:
The compound is administered orally to rats which have fasted for 12 hours, the animals being killed 4 hours after the administration.
Regarded as positive, i.e. with stomach damage, are those animals which have at least one haemorrhage point on the stomach wall.
By ED50 there is meant that dose of the drug which can […] in 50% of the animals treated, the formation of these haemorrhages.
In Table 6 there are compared CR 604 and Indometacin, since the latter is, amongst them all, the nearest to the anti-inflammatory activity values of CR 604.

[10] = system: uropepsinogene; assay type: in vivo, human
Experimental: as §1
Gastric secretion of pepsin is increased by agents which irritate and damage the gastric mucosa.

[11] = 15 mg/kg/day i.p. + aminoacetonitrile 100 mg/kg/day
[12] = rat, oral 1 hour before carragheen 1%, paws weighed after two hours
[13] = oral, fasted 12 hours, killed 4 hours after administration, read-out: ED50 gastrolesive
[14] = 5 mg/kg/day i.p. + aminoacetonitrile 100 mg/kg/day
[15] = after one week, CR 604 75 mg or Indometacin 25 mg capsules, 6 per day
[16] = after three weeks, CR 604 75 mg or Indometacin 25 mg capsules, 6 per day

## CCCN(CCC)C(=O)C(CCC(=O)OCCCN1CCN(CCOC(=O)Cc2c(C)n(C(=O)c3ccc(Cl)cc3)c3ccc(OC)cc23)CC1)NC(=O)c1ccccc1 (racemic) [CR 604 (di-maleate), N'-2-[1-(p-chlorobenzoyl)-5-methoxy-2-methyl-3-indoleacetoxy]ethyl-N-3-(N-benzoyl-N', N'-di-n-propyl-DL-isoglutaminoyl)-oxypropyl-piperazine]
[1]; [11]
  Deformed gait of back legs: 0.6
  Deformed gait of front legs: 0
  General Condition of Animal: 0.2
  Loss of fur: 0
  Loss of weight: 0
  Ptosis of auricular pavilion: 0.2
[2]; [12]
  ED50: 11.5 µmol/kg and 12.3 mg/kg
[3]; in vivo
  Urinary calcium: 132 mg/1000 cc of urine
[4]; rat, oral
  ED50: 5.3 µmol/kg and 5.72 mg/kg
[5]; rat, oral, daily for a week
  ED50: 25.6 µmol/kg and 27.6 mg/kg
[6]
  solubility in acetone: slightly soluble
  solubility in ethanol: slightly soluble
  solubility in methanol: more soluble
[6]; water
  solubility in water, in words: Insoluble
[7]; in vivo
  Epigastric pain: 0 % of patients in pain
[8]; 6 μg/ml of culture liquid
  activity at 6 µg/mL: 108%
[9]; [13]
  TD50 at 4 h: 330 µmol/kg
[9]; po
  TD50 at 4 h: 355 mg/kg
[10]; in vivo
  Uropepsinogene: 216.3 equivalent mg of tyrosine per

## CCCN(CCC)C(=O)C(CCC(=O)OCCCN1CCN(CCOC(=O)Cc2c(C)n(C(=O)c3ccc(Cl)cc3)c3ccc(OC)cc23)CC1)NC(=O)c1ccccc1 (racemic) [CR 604 di-hydrochloride, N'-2-[1-(p-chlorobenzoyl)-5-methoxy-2-methyl-3-indoleacetoxy]ethyl-N-3-(N-benzoyl-N', N'-di-n-propyl-DL-isoglutaminoyl)-oxypropyl-piperazine]
[6]
  solubility in acetone: Fairly soluble
  solubility in ethanol: Soluble
  solubility in methanol: Soluble
[6]; water
  solubility in water, in words: Hardly soluble
[6]; water, 25°
  solubility: ~5000 µg/mL

## CCCN(CCC)C(=O)C(CCC(=O)OCCCN1CCN(CCOC(=O)Cc2c(C)n(C(=O)c3ccc(Cl)cc3)c3ccc(OC)cc23)CC1)NC(=O)c1ccccc1 (racemic) [CR 604 dioxalate, N'-2-[1-(p-chlorobenzoyl)-5-methoxy-2-methyl-3-indoleacetoxy]ethyl-N-3-(N-benzoyl-N', N'-di-n-propyl-DL-isoglutaminoyl)-oxypropyl-piperazine]
[6]
  solubility in acetone: slightly soluble
  solubility in ethanol: slightly soluble
  solubility in methanol: slightly soluble
[6]; water
  solubility in water, in words: Insoluble

## CCCN(CCC)C(=O)C(CCC(=O)OCCCN1CCN(CCCOC(=O)Cc2c(C)n(C(=O)c3ccc(Cl)cc3)c3ccc(OC)cc23)CC1)NC(=O)c1ccccc1 (racemic) [CR 613 (di-maleate), N'-3-[1(p-chlorobenzoyl)-5-methoxy-2-methyl-3-indoleacetoxy]-propyl-N-3-(N-benzoyl-N',N'-di-n-propyl-DL-isoglutaminoyl)-oxypropyl-piperazine]
[2]; [12]
  ED50: 13.6 µmol/kg and 14.9 mg/kg
[6]
  solubility in acetone: slightly soluble
  solubility in ethanol: slightly soluble
  solubility in methanol: more soluble
[6]; water
  solubility in water, in words: Insoluble
[9]; [13]
  TD50 at 4 h: 277 µmol/kg
[9]; po
  TD50 at 4 h: 303 mg/kg

## CCCN(CCC)C(=O)C(CCC(=O)OCCN1CCN(CCOC(=O)Cc2c(C)n(C(=O)c3ccc(Cl)cc3)c3ccc(OC)cc23)CC1)NC(=O)c1ccccc1 (racemic) [CR 626 (di-maleate), N'-2-[1-(p-chlorobenzoyl)-5-methoxy-2-methyl-3-indoleacetoxy]-ethyl-N-2-(N-benzoyl-N',N'-di-n-propyl-D,L-isoglutaminoyl)-oxyethyl-piperazine]
[2]; [12]
  ED50: 15 µmol/kg and 16 mg/kg
[6]
  solubility in acetone: slightly soluble
  solubility in ethanol: slightly soluble
  solubility in methanol: more soluble
[6]; water
  solubility in water, in words: Insoluble
[9]; [13]
  TD50 at 4 h: 342 µmol/kg
[9]; po
  TD50 at 4 h: 363 mg/kg

## CC(=O)Oc1ccccc1C(=O)O [Acetylsalicylic ac.]
[2]; Rattus norvegicus, po
  ED50: 1250 µmol/kg and 226 mg/kg

## CC(C)Cc1ccc(C(C)C(=O)O)cc1 (stereo not drawn) [Ibuprofen]
[2]; [12]
  ED50: 436 µmol/kg and 90 mg/kg

## COc1ccc2c(c1)c(CC(=O)O)c(C)n2C(=O)c1ccc(Cl)cc1 [Indometacin]
[1]; rabbit
  effect on aminoacetonitrile symptoms, in words: cannot prevent the occurrence of these conditions
[1]; [14]
  Deformed gait of back legs: 1.6
  Deformed gait of front legs: 3.2
  General Condition of Animal: 3.8
  Loss of fur: 3
  Loss of weight: 3.5
  Ptosis of auricular pavilion: 1.4
[2]; Rattus norvegicus, po
  ED50: 17.3 µmol/kg and 6.2 mg/kg
[3]; [15]
  Urinary calcium: 137 mg/1000 cc of urine
[3]; [16]
  Urinary calcium: 148 mg/1000 cc of urine
[3]; before treatment
  Urinary calcium: 126 mg/1000 cc of urine
[3]; human
  excretion of urinary calcium, in words: tendency to an increase
[4]; Rattus norvegicus, po
  ED50: 5.6 µmol/kg and 2 mg/kg
[5]; Rattus norvegicus, po
  ED50: 23.5 µmol/kg and 8.41 mg/kg
[7]; after 1 week of treatment, 6 per day
  gastric disturbances (subjects treated): 46.6%
[7]; after 3 weeks of treatment, 6 per day
  gastric disturbances (subjects treated): 53.3%
[7]; after 3 weeks, CR 604 75 mg or Indometacin 25 mg capsules, 6 per day
  Epigastric pain: 53.3 % of patients in pain
[7]; [15]
  Epigastric pain: 46.6 % of patients in pain
[7]; before treatment
  Epigastric pain: 0 % of patients in pain
[8]
  activity at 2 µg/mL: 78%
[9]; [13]
  TD50 at 4 h: 33.5 µmol/kg and 12 mg/kg
[9]; po
  gastrolesive dose, in words: very low
[10]; [15]
  Uropepsinogene: 208.1 equivalent mg of tyrosine per
[10]; [16]
  Uropepsinogene: 345.7 equivalent mg of tyrosine per
[10]; before treatment
  Uropepsinogene: 164.7 equivalent mg of tyrosine per
[10]; human
  uropepsinogene in urine, in words: increases

## Cc1cccc(Nc2ccccc2C(=O)O)c1C [Mephenamic ac.]
[2]; [12]
  ED50: 439 µmol/kg and 106 mg/kg
[8]
  activity at 10 µg/mL: 58%

## CCCCC1C(=O)N(c2ccccc2)N(c2ccccc2)C1=O [Phenylbutazone]
[2]; [12]
  ED50: 464 µmol/kg and 143 mg/kg
[4]; rat, oral
  ED50: 324 µmol/kg and 100 mg/kg
[8]
  activity at 10 µg/mL: 58%
